Assay [1] has as its target T1, Tyrosine-protein phosphatase non-receptor type 1 (Homo sapiens, UniProt P18031).
T1 sequence (P18031 whole entry): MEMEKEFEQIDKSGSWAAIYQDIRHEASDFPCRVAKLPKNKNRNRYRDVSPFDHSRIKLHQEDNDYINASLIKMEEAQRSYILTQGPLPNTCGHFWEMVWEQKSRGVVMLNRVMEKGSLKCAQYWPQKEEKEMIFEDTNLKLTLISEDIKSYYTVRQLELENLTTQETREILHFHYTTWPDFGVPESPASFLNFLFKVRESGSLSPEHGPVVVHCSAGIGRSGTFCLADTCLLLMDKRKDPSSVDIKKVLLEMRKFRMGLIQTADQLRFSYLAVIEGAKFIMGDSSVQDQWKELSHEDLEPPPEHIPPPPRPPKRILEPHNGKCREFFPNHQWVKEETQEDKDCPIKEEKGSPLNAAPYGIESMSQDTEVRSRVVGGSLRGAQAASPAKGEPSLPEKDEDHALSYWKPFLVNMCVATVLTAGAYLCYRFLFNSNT
Kind of assay: Inhibition of purified human GST-tagged PTP-1B using p-nitrophenylphosphate as substrate by spectrophotometry.

For assay [2], the target named is T2, Low molecular weight phosphotyrosine protein phosphatase (Homo sapiens, UniProt P24666).
T2 sequence (P24666 whole entry): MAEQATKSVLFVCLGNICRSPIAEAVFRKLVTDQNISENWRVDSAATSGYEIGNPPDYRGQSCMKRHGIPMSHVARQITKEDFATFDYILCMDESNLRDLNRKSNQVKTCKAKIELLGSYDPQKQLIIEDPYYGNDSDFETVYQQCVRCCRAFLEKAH
The experiment in a line: Inhibition of human LMW-PTP IF2 using p-nitrophenylphosphate as substrate by spectrophotometry.

Assay [3] concerns the target T2, Low molecular weight phosphotyrosine protein phosphatase. Kind of assay: Inhibition of human LMW-PTP IF1 using p-nitrophenylphosphate as substrate by spectrophotometry.
The target in assay [4] is T1, Tyrosine-protein phosphatase non-receptor type 1. Kind of assay: Mixed-type inhibition of purified human GST-tagged PTP-1B using p-nitrophenylphosphate as substrate by double-reciprocal plot method.
For assay [5], the system named is Rattus norvegicus. Kind of assay: Antidiabetic activity in NIDDM Wistar rat model assessed as reduction blood glucose level at 50 mg/kg, po measured after 3 hrs post dose by glucometry. It is filed as functional.
Assay [6] has as its system Rattus norvegicus. The experiment in a line: Antidiabetic activity in NIDDM Wistar rat model assessed as reduction blood glucose level at 50 mg/kg, po measured after 1 hr post dose by glucometry. It is filed as functional, organism-based. Also noted: dose 50 mg/kg.
The target of assay [7] is T3, Tyrosine-protein phosphatase non-receptor type 2 (Homo sapiens, UniProt P17706).
T3 sequence (P17706 whole entry): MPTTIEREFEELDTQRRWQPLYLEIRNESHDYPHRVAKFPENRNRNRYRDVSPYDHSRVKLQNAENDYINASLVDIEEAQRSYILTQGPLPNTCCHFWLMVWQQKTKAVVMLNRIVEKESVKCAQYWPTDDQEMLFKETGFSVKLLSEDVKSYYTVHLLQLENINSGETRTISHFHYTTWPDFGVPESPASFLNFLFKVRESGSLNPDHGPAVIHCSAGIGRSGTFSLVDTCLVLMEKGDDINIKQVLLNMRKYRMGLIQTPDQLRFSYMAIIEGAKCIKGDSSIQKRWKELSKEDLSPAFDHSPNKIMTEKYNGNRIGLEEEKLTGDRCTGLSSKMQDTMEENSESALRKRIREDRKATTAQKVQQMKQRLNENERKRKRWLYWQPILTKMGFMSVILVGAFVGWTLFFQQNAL
The experiment in a line: Inhibition of TC-PTP (unknown origin) using p-nitrophenylphosphate as substrate by spectrophotometry.

Assay [8] addresses T1, Tyrosine-protein phosphatase non-receptor type 1. The experiment in a line: Non-competitive inhibition of purified human GST-tagged PTP-1B using p-nitrophenylphosphate as substrate by double-reciprocal plot method.

Activity calls are given as the source filed them. The calls are words filed in the database; no cut-off is given here. Where only a bound is given, the exact number is not on record here.

Broadly, the IC50 is the concentration at which inhibition is half-maximal. In general, Ki refers to a measure of affinity in units of concentration, obtained from inhibition or displacement.

In assay [1], `CCCO[C@H]1CC[C@]2(C)[C@H]3CC=C4[C@@H]5CC(C)(C)CC[C@]5(C(=O)O)CC[C@@]4(C)[C@]3(C)CC[C@H]2C1(C)C` displayed an IC50 of 36.5 µM.

The compound `CO[C@H]1CC[C@]2(C)[C@H]3CC=C4[C@@H]5CC(C)(C)CC[C@]5(C(=O)O)CC[C@@]4(C)[C@]3(C)CC[C@H]2C1(C)C` yielded a 50% inhibitory concentration (IC50) in assay [1] of 8.6 µM.

For `CC1(C)CC[C@]2(C(=O)O)CC[C@]3(C)C(=CC[C@@H]4[C@@]5(C)CC[C@H](OC(=O)/C=C/c6ccccc6)C(C)(C)[C@@H]5CC[C@]43C)[C@@H]2C1`, the IC50 was 12.3 µM in assay [2], 6.9 µM in assay [3], 6.1 µM in assay [1] and 11.8 µM in assay [7]. The inhibitory constant (Ki) in assay [4] turned out to be 2.1 µM. Further, the outcome in the assay with Rattus norvegicus [5] and with Rattus norvegicus [6] was Active.

`C/C=C/C(=O)O[C@H]1CC[C@]2(C)[C@H]3CC=C4[C@@H]5CC(C)(C)CC[C@]5(C(=O)O)CC[C@@]4(C)[C@]3(C)CC[C@H]2C1(C)C`: 17.8 µM corresponded to half-maximal inhibition in assay [1] (IC50).

Compound `CC1(C)CC[C@]2(C(=O)O)CC[C@]3(C)C(=CC[C@@H]4[C@@]5(C)CC[C@H](OC(=O)c6ccccc6)C(C)(C)[C@@H]5CC[C@]43C)[C@@H]2C1` came in with an IC50 in assay [1] of 16.2 µM.

Regarding `CCO[C@H]1CC[C@]2(C)[C@H]3CC=C4[C@@H]5CC(C)(C)CC[C@]5(C(=O)O)CC[C@@]4(C)[C@]3(C)CC[C@H]2C1(C)C`, the half-maximal inhibitory concentration (IC50) in assay [2] was 47.4 µM; in assay [3] it was 16.4 µM; in assay [1], 5.3 µM; in assay [7], 26 µM. Moreover, the Activity with Rattus norvegicus [5] was more than 20%. In addition, the result in the assay on Rattus norvegicus [6] was inactive. The same compound showed an inhibition constant Ki in assay [8] of 4.8 µM.

`CC(=O)O[C@H]1CC[C@]2(C)[C@H]3CC=C4[C@@H]5CC(C)(C)CC[C@]5(C(=O)O)CC[C@@]4(C)[C@]3(C)CC[C@H]2C1(C)C` [ACETYL OLEANOLIC ACID] had a 50% inhibitory concentration (IC50) in assay [1] of 21.5 µM.

Source of the values: ChEMBL document CHEMBL3352127, “Synthesis of oleanolic acid derivatives: In vitro, in vivo and in silico studies for PTP-1B inhibition” (Eur J Med Chem, 2014).
